According to US6933290B2, “2-{N-(2-amino-3-(heteroaryl or aryl)propionyl)-aminoacyl}-amino}-alkylboronic acid derivatives” (Novartis AG, priority 2001, dated 2005):
“And” between values parts separate entries of the source, which are not always exact repeats. Equal entries are not always repeated.

Target: T1, chymotrypsin-like activity of the 20S proteasome (Homo sapiens, UniProt P20618+P28074)
T1 construct: purified human placenta 20S proteasome; tissue Diabetes Forschungsinstitut, Düsseldorf, Germany; host or cells: human placenta
Test: Inhibition of the chymotrypsin-like activity of the 20S proteasome (Suc-LLVY-AMC hydrolysis)
Type: biochemical
Settings: purified human placenta 20S proteasome, Suc-LLVY-AMC substrate, read-out: IC50 [μM] (results of one or two experiments)
Description: It is based on the hydrolysis of the fluorogenic peptide Suc-LLVY-AMC (Succinyl-leucine-leucine-vatine-tyrosine-7-amino-4-methyl-coumarin), which is cleaved exclusively at the Y-AMC bond by the 20S proteasome. Hydrolysis of this peptide is accompanied by an increase in fluorescence intensity (λex (excitation wavelength): 355 nm; μem (emission wavelength): 460 nm) due to release of the […] that accompanies diffusion apart of the hydrolysis product Suc-LLVY.
2 μl of a 1 mM solution of a test compound in DMSO (dimethylsulfoxide, 20 μM final concentration in the well) are preincubated for 60 min at room temperature in black 96-well microtiter plates together with a mixture of 1 μl purified human placenta 20S proteasome (Diabetes Forschungsinstitut, DÜsseldorf, Germany; about 100 ng proteasome, depending on the proteasome preparation) and 47 μl buffer-Ca (5 mM CaCl2, 20 mM Tris/HCl (Tris-(hydroxymethyl)-amino-methane hydrochloride) pH 8.0). 3 μl of a 2.67 mM solution of Suc-LLVY-AMC (Bachem, Switzerland) in DMSO (80 μM final concentration in the well) and 47 μl buffer-Ca are mixed and added. The resulting mixture is incubated for 3-24 h at 37° C. If desired, proteolysis of the substrate can be stopped by addition of 50 μl stop solution (100 mM monochloroacetic acid, 130 mM NaOH, 100 mM acetic acid, pH=4.3). The fluorescence is monitored with a FLUOROSKAN ASCENT™ microtiter plate reader.
For each measurement series two control experiments are carried out: • 1.) 0% value: 2 μl DMSO are used in the above described assay instead of 2 μl of a 1 mM solution of a test compound in DMSO and 48 μl buffer-Ca instead of a mixture of 47 μl buffer-Ca and 1 μl purified proteasome. • 2.) 100% value: in the above described assay 2 μl DMSO are used instead of 2 μl of a 1 mM solution of the test compound in DMSO. Calculation [formula]
The IC50 value is defined as that concentration of a compound at which the remaining activity is 50% compared to the […].

Row | Compound | IC50
1 | COc1ccc(C[C@H](NC(=O)CCc2ccccc2)C(=O)N[C@@H](C)C(=O)N[C@@H](CC(C)C)B2O[C@@H]3C[C@@H]4C[C@@H](C4(C)C)[C@]3(C)O2)c(OC)c1OC [Example 47, (S)-N-{(S)-1-[(R)-3-Methyl-1-((1S,2S,6R,8S)-2,9,9-trimethyl-3,5-dioxa-4-bora-tricyclo[6.1.1.0^2,6]dec-4-yl)-butylcarbamoyl]-ethyl}-2-(3-phenyl-propionylamino)-3-(2.3.4 trimethoxy-phenyl)-propionamide] | 0.0008 µM
2 | COc1cc(C[C@H](Nc2cccc(-c3ccccc3)c2)C(=O)N[C@H](C(=O)N[C@@H](CC(C)C)B2O[C@@H]3C[C@@H]4C[C@@H](C4(C)C)[C@]3(C)O2)C(C)C)cc(OC)c1OC [Example 1, (S)-2-[(S)-2-(Biphenyl-3-ylamino)-3-(3,4,5-trimethoxy-phenyl)-propionylamino]-3-methyl-N-[(R)-3-methyl-1-((1S,2S,6R,8S)-2,9,9-trimethyl-3,5-dioxa-4-bora-tricyclo[6.1.1.0^2,6]dec-4-yl)-butyl]-butyramide] | 0.0046 µM and 0.0024 µM
3 | COc1cc(C[C@@H](Nc2cccc(-c3ccccc3)c2)C(=O)N[C@H](C(=O)N[C@@H](CC(C)C)B2O[C@@H]3C[C@@H]4C[C@@H](C4(C)C)[C@]3(C)O2)C(C)C)cc(OC)c1OC [Example 21, (S)-2-[(R)-2-(Biphenyl-3-ylamino)-3-(3,4,5-trimethoxy-phenyl)-propionylamino]-3-methyl-N-[(R)-3-methyl-1-((1S,2S,6R,8S)-2,9,9-trimethyl-3,5-dioxa-4-bora-tricyclo[6.1.1.0^2]dec-4-yl)-butyl]-butyramide] | 0.0015 µM
4 | COc1ccc(C[C@H](Nc2cccc(-c3ccccc3)c2)C(=O)N[C@H](C(=O)N[C@@H](CC(C)C)B(O)O)C(C)C)c(OC)c1OC [Example 16, (R)-1-{(S)-2-[(S)-2-(Biphenyl-3-ylamino)-3-(2,3,4-trimethoxy-phenyl)-propionylamino]-3-methyl-butyrylamino}-3-methyl-butylboronic acid] | 0.0059 µM
5 | COc1ccc(C[C@H](Nc2cccc(-c3ccccc3)c2)C(=O)N[C@H](C(=O)N[C@@H](Cc2ccccc2)B(O)O)C(C)C)cc1 [Example 52, (R)-1-{(S)-2-[(S)-2-(Biphenyl-3-ylamino)-3-(4-methoxy-phenyl)-propionylamino]-3-methyl-butyrylamino}-2-phenyl-ethylboronic acid] | 0.005 µM
6 | COc1cc(C[C@H](Nc2cccc(-c3ccccn3)c2)C(=O)N[C@H](C(=O)N[C@@H](CC(C)C)B2O[C@@H]3C[C@@H]4C[C@@H](C4(C)C)[C@]3(C)O2)C(C)C)cc(OC)c1OC [Example 13, (S)-3-Methyl-N-[(R)-3-methyl-1-((1S,2S,6R,8S)-2,9,9-trimethyl-3,5-dioxa-4-bora-tricyclo[6.1.1.0^2,6]dec-4-yl)-butyl]-2-[(S)-2-(3-pyridin-2-yl-phenylamino)-3-(3,4,5-trimethoxy-phenyl)-propionylamino]-butyramide] | 0.0013 µM
7 | COc1cc(C[C@@H](Nc2cccc(-c3ccccc3)c2)C(=O)N[C@H](C(=O)N[C@@H](CC(C)C)B(O)O)C(C)C)cc(OC)c1OC [Example 22, (R)-1-{(S)-2-[(R)-2-(Biphenyl-3-ylamino)-3-(3,4,5-trimethoxy-phenyl)-propionylamino]-3-methyl-butyrylamino}-3-methyl-butylboronic acid] | 0.0017 µM
8 | CC(C)C[C@H](NC(=O)[C@@H](NC(=O)[C@H](Cc1ccc(OCc2ccccc2)cc1)NC(=O)Cc1cccc(OCc2ccccc2)c1)C(C)C)B(O)O [Example 30, (R)-1-((S)-2{(S)-3-(4-Benzyloxy-phenyl)-2-[2-(3-benzyloxy-phenyl)-acetylamino]-propionylamino}-3-methyl-butyrylamino)-3-methyl-butylboronic acid] | 0.0059 µM
9 | COc1cc(C[C@H](NC(=O)Cc2cccc(Oc3ccccc3)c2)C(=O)N[C@H](C(=O)N[C@@H](CC(C)C)B(O)O)C(C)C)cc(OC)c1OC [Example 28, (R)-3-Methyl-1-{(S)-3-methyl-2-[(S)-2-[2-(3-phenoxy-phenyl)-acetylamino]-3-(3,4,5-trimethoxy-phenyl)-propionylamino]-butyrylamino}-butylboronic acid] | 0.0008 µM
10 | COc1ccc(C[C@H](Nc2cccc(-c3ccccc3)c2)C(=O)N[C@@H](C)C(=O)N[C@@H](CC(C)C)B(O)O)c(OC)c1OC [Example 40, (R)-1-{(S)-2-[(S)-2-(Biphenyl-3-ylamino)-3-(2,3,4-trimethoxy-phenyl)-propionylamino]-propionylamino}-3-methyl-butylboronic acid] | 0.0022 µM
11 | COc1ccc(C[C@H](Nc2cccc(-c3ccccc3)c2)C(=O)N[C@H](C(=O)N[C@@H](CC(C)C)B2O[C@@H]3C[C@@H]4C[C@@H](C4(C)C)[C@]3(C)O2)C(C)C)cc1 [Example 7, (S)-2-[(S)-2-(Biphenyl-3-ylamino)-3-(4-methoxy-phenyl)-propionylamino]-3-methyl-N-[(R)-3-methyl-1-((1S,2S,6R,8S)-2,9,9-trimethyl-3,5-dioxa-4-bora-tricyclo[6.1.1.0^2,6]dec-4-yl)-butyl]-butyramide] | 0.0029 µM and 0.0032 µM
12 | COc1ccc(C[C@H](Nc2cccc(-c3ccccc3)c2)C(=O)N[C@@H](CC(C)C)C(=O)N[C@@H](CC(C)C)B2O[C@@H]3C[C@@H]4C[C@@H](C4(C)C)[C@]3(C)O2)cc1OC [Example 33, (S)-2-[(S)-2-(Biphenyl-3-ylamino)-3-(3,4-dimethoxy-phenyl)-propionylamino]-4-methyl-pentanoic acid [(R)-3-methyl-1-((1S,2S,6R,8S)-2,9,9-trimethyl-3,5-dioxa-4-bora-tricyclo[6.1.1.0^2,6]dec-4-yl)-butyl]-amide] | 0.0026 µM
13 | COc1ccc(C[C@H](NC(=O)Cc2cccc(Oc3ccccc3)c2)C(=O)N[C@H](C(=O)N[C@@H](CC(C)C)B(O)O)C(C)C)c(OC)c1OC [Example 4] | 0.0019 µM and 0.0015 µM
14 | COc1ccc(C[C@H](Nc2cccc(-c3ccccc3)c2)C(=O)N[C@H](C(=O)N[C@@H](Cc2ccccc2)B2O[C@@H]3C[C@@H]4C[C@@H](C4(C)C)[C@]3(C)O2)C(C)C)cc1 [Example 51, (S)-2-[(S)-2-(Biphenyl-3-ylamino)-3-(4-methoxy-phenyl)-propionylamino]-3-methyl-N-[(R)-2-phenyl-1-((1S,2S,6R,8S)-2,9,9-trimethyl-3,5-dioxa-4-bora-tricyclo[6.1.1.0^2,6]dec-4-yl)-ethyl]-butyramide] | 0.0043 µM
15 | COc1cc(C[C@H](Nc2cccc(C(C)C)c2)C(=O)N[C@H](C(=O)N[C@@H](CC(C)C)B(O)O)C(C)C)cc(OC)c1OC [Example 12, (R)-1-{(S)-2-[(S)-2-(3-Isopropyl-phenylamino)-3-(3,4,5-trimethoxy-phenyl)-propionylamino]-3-methyl-butyrylamino}-3-methyl-butylboronic acid] | 0.0038 µM
16 | COc1ccc(C[C@H](Nc2cccc(-c3ccccc3)c2)C(=O)N[C@H](C(=O)N[C@@H](CC(C)C)B(O)O)C(C)C)cc1 [Example 8, (R)-1-{(S)-2-[(S)-2-(Biphenyl-3-ylamino)-3-(4-methoxy-phenyl)-propionylamino]-3-methyl-butyrylamino}-3-methyl-butylboronic acid] | 0.0028 µM and 0.0045 µM
17 | (R)-1-{(S)-2-[(S)-2-(3-Isopropyl-phenylamino)-3-(3,4,5-trimethoxy-phenyl)-propionylamino]-propionylamino}-3-methyl-butylboronic acid [Example 46] | 0.0019 µM
